Measured values from patent US5412098A, “Quinolone derivative or salt thereof and antibacterial containing the same” (Wakunaga Seiyaku Kabushiki Kaisha, priority 1991, dated 1995).
≈ marks a conversion by molar mass, not a printed value.

Columns and labels:
[1] = system: E. Coli NIH JC-2 (IFO 12734); assay: Minimum inhibitory concentration, standard method of Japan Society of Chemotherapy, E. Coli NIH JC-2; format: cell-based; details: Escherichia coli, IFO12734
Method: (§1) Antibacterial activity, absorption and excretion of the compounds indicated in Examples were tested as follows.
(§2) The minimum inhibitory concentration (MIC: microgram/ml) is measured by the standard method of Japan Society of Chemotherapy, (Chemotherapy, Volume 29, No.1, pp.76-79, 1981). The results are shown in Table 52 in which compound numbers are the same as those indicated in Examples.

[2] = system: S. aureus 209P (IFO 12732); assay: Minimum inhibitory concentration, standard method of Japan Society of Chemotherapy, S. aureus 209P; format: cell-based; details: Staphylococcus aureus
Method: as §1, §2

[3] = system: P. aeruginosa (IFO 3445); assay: Minimum inhibitory concentration, standard method of Japan Society of Chemotherapy, P. aeruginosa; format: cell-based; details: Pseudomonas aeruginosa, IFO3445
Method: as §1, §2

[4] = Recovery in urine after oral administration (disk method, Bacillus subtilis ATCC 6633); format: in vivo, male JCL-SD rats; details: rat, 20 mg/kg, rats, 20 mg/10 ml/kg in 0.5% methylcellulose, fasted overnight, read-out: Excretion Rate, In Urine
Method: (§3) The absorption and excretion after oral administration of the compounds of the present invention were tested by measuring the recovery in urine and bile as follows.
To a group of three male JCL-SD rats (6 weeks old) fasted overnight, a subject compound was orally administered as prepared to be 20 mg/10 ml/kg with 0.5% of methylcellulose solution. The sampling was carried out by collecting urine in 0 to 6 hours and 6 to 24 hours. The concentration of the subject compound in the urine was examined by a disk method by using Bacillus subtilis ATCC 6633 as a testing bacillus to obtain an excretion rate in urine for 24 hours.

[5] = Recovery in bile after oral administration (disk method, Bacillus subtilis ATCC 6633); format: in vivo; details: rat, 20 mg/kg, rats, prepared as in urine test (20 mg/10 ml/kg), read-out: Excretion Rate, In Bile
Method: as §3
A subject compound was prepared in the same manner as the recovery test in urine and was orally administered to the rats. The bile was collected by using a polyethylene tube inserted into the choledochus over 24 hours. The concentration of the subject compound in the bile sample was examined in the same manner as the recovery in urine to obtain an excretion rate in bile for 24 hours.

SMILES | MIC [1] [µg/mL] | MIC [2] [µg/mL] | MIC [3] [µg/mL] | dose excreted at 24 h [4] [%] | dose excreted at 24 h [5] [%]
C[C@@H]1CN(c2nc3c(cc2F)c(=O)c(C(=O)O)cn3-c2cnsn2)C[C@@H]1N (single isomer, unassigned) [Compound 19] | < 0.013 | 0.1 (≈ 0.256 µM) | 0.39 (≈ 0.999 µM) | 80.6 | 4.4
N[C@H]1CCN(c2c(F)cc3c(=O)c(C(=O)O)cn(Cc4cnsn4)c3c2F)C1 [Compound 126] | 3.13 (≈ 7.68 µM) | 0.39 (≈ 0.957 µM) | 3.13 (≈ 7.68 µM) |  | 
Cc1c(F)c(N2CC[C@H](N)C2)cc2c1c(=O)c(C(=O)O)cn2-c1cnsn1 [Compound 162] | 0.013 (≈ 0.0334 µM) | 0.1 (≈ 0.257 µM) | 0.2 (≈ 0.514 µM) |  | 

Next, values leading:

MIC [1] [µg/mL] | MIC [2] [µg/mL] | MIC [3] [µg/mL] | dose excreted at 24 h [4] [%] | dose excreted at 24 h [5] [%] | SMILES
< 0.013 | 0.2 | 0.1 | 20 | 2 | Cl.N[C@H]1CCN(c2nc3c(cc2F)c(=O)c(C(=O)O)cn3-c2cnsn2)C1 [Compound 18, 7-(3-(S)-Aminopyrrolidin-1-yl)-6-fluoro-1-(1,2,5-thiadiazol-3-yl)-1,4-dihydro-4-oxo-1,8-naphthyridine-3-carboxylic acid hydrochloride]
0.05 (≈ 0.133 µM) | 1.56 (≈ 4.14 µM) | 0.39 (≈ 1.04 µM) |  |  | N[C@H]1CCN(c2nc3c(cc2F)c(=O)c(C(=O)O)cn3-c2csnn2)C1 [Compound 58]
0.05 (≈ 0.134 µM) | 0.1 (≈ 0.267 µM) | 0.2 (≈ 0.534 µM) |  |  | Cc1nonc1-n1cc(C(=O)O)c(=O)c2cc(F)c(N3CC[C@H](N)C3)nc21 [Compound 81]
0.05 | 0.2 | 0.39 |  |  | Cc1nsnc1-n1cc(C(=O)O)c(=O)c2cc(F)c(N3CC[C@H](N)C3)nc21.Cl [Compound 187, 7-(3-(S)-Aminopyrrolidin-1-yl)-6-fluoro-1-(4-methyl-1,2,5-thiadiazol-3-yl)-1,4-dihydro-4-oxo-1,8-naphthyridine-3-carboxylic acid hydrochloride]
